Reference: ChEMBL document CHEMBL6103671, “Novel Piperazine Derivatives as Selective Antagonists of GluN2B-Containing NMDARs under Acidic pH Conditions” (ACS Med Chem Lett, 2025)

What was measured:
Assay type in all cases: cell-based
[1] = tested on: Oocyte; assay: Selectivity ratio of IC50 for antagonist activity at human GluN1-1a/GluN2A receptor expressed in Xenopus laevis oocytes at pH 7.6 to antagonist activity at human GluN1-1a/GluN2A receptor expressed in Xenopus laevis oocytes at pH 6.9
[2] = Antagonist activity at human GluN1-1a/[…] receptor expressed in Xenopus laevis oocytes assessed as inhibition of glutamate/glycine-induced current at pH 6.9 with -40 mV holding potential by two-electrode voltage-clamp method; settings: Oocyte
[3] = Antagonist activity at human GluN1-1a/[…] receptor expressed in Xenopus laevis oocytes assessed as inhibition of glutamate/glycine-induced current at pH 7.6 with -40 mV holding potential by two-electrode voltage-clamp method; settings: Oocyte

Structure (SMILES)	Ratio IC50 [1]	IC50 [2] [nM]	IC50 [3] [nM]
NC(=O)Nc1ccc(OC[C@H](O)CN2CCN(c3ccc(Cl)c(Cl)c3)CC2)cc1	4.4	30	132
O=C1CCc2cc(OC[C@H](O)CN3CCN(c4ccc(C(F)(F)F)cc4)CC3)ccc2N1 [NP-10679]	6.2	23	142
NC(=O)Nc1ccc(OC[C@@H](O)CN2CCN(c3ccc(Cl)cc3)CC2)cc1	9.8	46	452
NC(=O)Nc1ccc(OC[C@@H](O)CN2CCN(c3ccc(Cl)c(Cl)c3)CC2)cc1	9.2	103	947
O=C1CCc2cc(OC[C@@H](O)CN3CCN(c4ccc(C(F)(F)F)cc4)CC3)ccc2N1	6.5	111	717
NC(=O)Nc1ccc(OC[C@H](O)CN2CCN(c3ccc(Cl)cc3)CC2)cc1	3.2	19	60
